Data on 26 molecules can be found in patent publication US6638956B2, “Pesticidal 1-arylpyrazoles” (Rhone-Poulenc, Inc., priority 1996, dated 2003).

A word on the melting point: it is the temperature of the solid-liquid transition.

Each structure is given as a SMILES string.

Test system in the first data set: not given
Settings: not given
`C[S+]([O-])c1c(C(=N)NO)nn(-c2c(Cl)cc(OC(F)(F)F)cc2Cl)c1N` (centres unmarked) [Compound 45, 5-Amino-1-[2,6-dichloro-4-(trifluoromethoxy)phenyl]-N-hydroxy-4-methylsulfinyl-1H-pyrazole-3-carboximidamide] came in with a melting point of 198 to 200 °C. On the same count and under the same terms, for `CS(=O)(=O)c1c(C(=N)NO)nn(-c2c(Cl)cc(C(F)(F)F)cc2Cl)c1N` [Compound 46, 5-Amino-1-[2,6-dichloro-4-(trifluoromethyl)phenyl]-N-hydroxy-4-methylsulfonyl-1H-pyrazole-3-carboximidamide] the value was 109 to 111 °C. The molecule `CSc1c(C(=N)NO)nn(-c2c(Cl)cc(C(F)(F)F)cc2Cl)c1N` [Compound 47, 5-Amino-1-[2,6-dichloro-4-(trifluoromethyl)phenyl]-N-hydroxy-4-methylthio-1H-pyrazole-3-carboximidamide] displayed a melting point of 207 to 208 °C. Regarding `CCS(=O)(=O)c1c(C(=N)NO)nn(-c2c(Cl)cc(C(F)(F)F)cc2Cl)c1N` [Compound 48, 5-Amino-1-[2,6-dichloro-4-(trifluoromethyl)phenyl]-N-hydroxy-4-ethylsulfonyl-1H-pyrazole-3-carboximidamide], the melting point is 109 to 111 °C. Same read-out and setting: the result for `CONC(=N)c1nn(-c2c(Cl)cc(C(F)(F)F)cc2Cl)c(N)c1[S+](C)[O-]` (centres unmarked) [Compound 49, 5-Amino-1-[2,6-dichloro-4-(trifluoromethyl)phenyl]-N-methoxy-4-methylsulfinyl-1H-pyrazole-3-carboximidamide] reads 140 to 145 °C. Still for that read-out and setting: the result for `CN=C(NOC)c1nn(-c2c(Cl)cc(C(F)(F)F)cc2Cl)c(N)c1[S+](C)[O-]` (centres unmarked) [Compound 50, 5-Amino-1-[2,6-dichloro-4-(trifluoromethyl)phenyl]-N-methoxy-N′-methyl-4-methylsulfinyl-1H-pyrazole-3-carboximidamide] reads 139 to 142 °C. `N=C(NO)c1nn(-c2c(Cl)cc(C(F)(F)F)cc2Cl)c(N)c1[S+]([O-])CCF` (centres unmarked) [Compound 51, 5-Amino-1-[2,6-dichloro-4-(trifluoromethyl)phenyl]-N-hydroxy-4-(2-fluoroethylsulfinyl)-1H-pyrazole-3-carboximidamide] gave a melting point of 212 to 215 °C. Still for that read-out and setting: the result for `N=C(NO)c1nn(-c2c(Cl)cc(C(F)(F)F)cc2Cl)c(N)c1S(=O)(=O)CCF` [Compound 52, 5-Amino-1-[2,6-dichloro-4-(trifluoromethyl)phenyl]-N-hydroxy-4-(2-fluoroethylsulfonyl)-1H-pyrazole-3-carboximidamide] reads 107 to 111 °C; that for `C[S+]([O-])c1c(C(=N)NO)nn(-c2ncc(C(F)(F)F)cc2Cl)c1N` (centres unmarked) [Compound 54, 5-Amino-1-[3-chloro-5-(trifluoromethyl)-2-pyridinyl]-4-methylsulfinyl-N-hydroxy-1H-pyrazole-3-carboximidamide], 234 to 235 °C; that for `CNc1c([S+](C)[O-])c(C(=N)NO)nn1-c1c(Cl)cc(C(F)(F)F)cc1Cl` (centres unmarked) [Compound 55, 1-[2,6-Dichloro-4-(trifluoromethyl)phenyl]-N-hydroxy-5-methylamino-4-methylsulfinyl-1H-pyrazole-3-carboximidamide], 191 to 192 °C. Same read-out and setting: the result for `CCNc1c([S+](C)[O-])c(C(=N)NO)nn1-c1c(Cl)cc(C(F)(F)F)cc1Cl` (centres unmarked) [Compound 56, 1-[2,6-Dichloro-4-(trifluoromethyl)phenyl]-5-ethylamino-N-hydroxy-4-methylsulfinyl-1H-pyrazole-3-carboximidamide] reads 192 to 193 °C; that for `C[S+]([O-])c1c(C(=N)NO)nn(-c2c(Cl)cc(C(F)(F)F)cc2Cl)c1NCCC#N` (centres unmarked) [Compound 58, 5-[2-(Cyano)ethylamino]-1-[2,6-dichloro-4-(trifluoromethyl)phenyl]-N-hydroxy-4-methylsulfinyl-1H-pyrazole-3-carboximidamide], 175 to 176 °C; that for `C[S+]([O-])c1c(C(=N)NO)nn(-c2c(Cl)cc(C(F)(F)F)cc2Cl)c1NCC(N)=O` (centres unmarked) [Compound 59, 5-(Aminocarbonylmethylamino)-1-[2,6-dichloro-4-(trifluoromethyl)phenyl]-N-hydroxy-4-methylsulfinyl-1H-pyrazole-3-carboximidamide], 119 to 120 °C. Regarding `C[S+]([O-])c1c(C(=N)NO)nn(-c2c(Cl)cc(C(F)(F)F)cc2Cl)c1NCCS(=O)(=O)c1ccccc1` (centres unmarked) [Compound 60, 1-[2,6-Dichloro-4-(trifluoromethyl)phenyl]-4-methylsulfinyl-5-[2-(phenylsulfonyl)ethylamino]-N-hydroxy-1H-pyrazole-3-carboximidamide], the melting point is 131 to 134 °C.

As for `C[S+]([O-])C1=C(N)N(c2c(Br)cc(C(F)(F)F)cc2Br)N(O)C1C(=N)N` (centres unmarked) [Compound 61, 5-Amino-1-[2,6-dibromo-4-(trifluoromethyl)phenyl]-4-methylsulfinyl-2-N-hydroxy-1H-pyrazole-3-carboximidamide], the melting point lay within 240 to 241 °C. For the molecule `CCNC1(c2c(Cl)cc(C(F)(F)F)cc2Br)NNC(C(=N)NO)=C1[S+](C)[O-]` (centres unmarked) [Compound 62, 5-[2-Bromo-6-chloro-4-(trifluoromethyl)phenyl]-5-ethylamino-4-methylsulfinyl-N-hydroxy-1H-pyrazole-3-carboximidamide], the melting point was in the range of 213 to 214 °C. Take `C[S+]([O-])c1c(C(=N)NO)nn(-c2c(Cl)cc(C(F)(F)F)cc2Br)c1N` (centres unmarked) [Compound 63, 5-Amino-1-[2-bromo-6-chloro-4-(trifluoromethyl)phenyl]-4-methylsulfinyl-N-hydroxy-1H-pyrazole-3-carboximidamide]: the melting point is 237 to 238 °C. As to `CC[S+]([O-])c1c(C(=N)NO)nn(-c2c(Cl)cc(C(F)(F)F)cc2Cl)c1NCC[S+](C)[O-]` (centres unmarked) [Compound 64, 1-[2,6-Dichloro-4-(trifluoromethyl)phenyl]-4-ethylsulfinyl-5-[2-(methylsulfinyl)ethylamino]-N-hydroxy-1H-pyrazole-3-carboximidamide], the melting point was 108 to 109 °C. Molecule `C[S+]([O-])CCNc1c([S+](C)[O-])c(C(=N)NO)nn1-c1c(Cl)cc(C(F)(F)F)cc1Cl` (centres unmarked) [Compound 65, 1-[2,6-Dichloro-4-(trifluoromethyl)phenyl]-4-methylsulfinyl-5-[2-(methylsulfinyl)ethylamino]-N-hydroxy-1H-pyrazole-3-carboximidamide] yielded a melting point of 150 to 151 °C. As to `CC[S+]([O-])CCNc1c([S+]([O-])CC)c(C(=N)NO)nn1-c1c(Cl)cc(C(F)(F)F)cc1Cl` (centres unmarked) [Compound 66, 1-[2,6-Dichloro-4-(trifluoromethyl)phenyl]-4-ethylsulfinyl-5-[2-(ethylsulfinyl)ethylamino]-N-hydroxy-1H-pyrazole-3-carboximidamide], the melting point lay in the range of 173 to 175 °C. `C#CCNc1c([S+](C)[O-])c(C(=N)NO)nn1-c1c(Cl)cc(C(F)(F)F)cc1Cl` (centres unmarked) [Compound 67, 1-[2,6-Dichloro-4-(trifluoromethyl)phenyl]-4-methylsulfinyl-5-[(prop-2-ynyl)amino]-N-hydroxy-1H-pyrazole-3-carboximidamide] returned a melting point of 194 to 196 °C. Still for that read-out and setting: the result for `C[S+]([O-])c1c(C(=N)NO)nn(-c2ccc(C(F)(F)F)cc2Cl)c1N` (centres unmarked) [Compound 68, 5-Amino-1-[2-chloro-4-(trifluoromethyl)phenyl]-4-methylsulfinyl-N-hydroxy-1H-pyrazole-3-carboximidamide] reads 238 to 239 °C. The molecule `C[S+]([O-])c1c(C(=N)NN)nn(-c2c(Cl)cc(C(F)(F)F)cc2Cl)c1N` (centres unmarked) [Compound 69, 5-Amino-1-[2,6-dichloro-4-(trifluoromethyl)phenyl]-4-methylsulfinyl-N-amino-1H-pyrazole-3-carboximidamide] showed a melting point of 210 °C. Turning to `CC(C)C(=O)NNC(=N)c1nn(-c2c(Cl)cc(C(F)(F)F)cc2Cl)c(N)c1[S+](C)[O-]` (centres unmarked) [Compound 70, 5-Amino-1-[2,6-dichloro-4-(trifluoromethyl)phenyl]-4-methylsulfinyl-N-(isopropylcarbonyl)amino-1H-pyrazole-3-carboximidamide], the melting point came out at 118 °C. `CCCCCCCC(=O)NNC(=N)c1nn(-c2c(Cl)cc(C(F)(F)F)cc2Cl)c(N)c1[S+](C)[O-]` (centres unmarked) [Compound 71, 5-Amino-1-[2,6-dichloro-4-(trifluoromethyl)phenyl]-4-methylsulfinyl-N-(n-heptylcarbonyl)amino-1H-pyrazole-3-carboximidamide] came in with a melting point of 122 °C.

The next data set relates to Lucilia sericata, sleep blow fly. Conditions: disclosed in WO 92/13451; cited from earlier work.
As for `N#Cc1nc(-c2c(C=NO)nn(-c3c(Cl)cc(C(F)(F)F)cc3Cl)c2Cl)[nH]c1C#N` [5-chloro-1-[2,6-dichloro-4-(trifluoromethyl)phenyl]-4-(4,5-dicyano-1H-imadazol-2-yl)-3-hydroxyiminomethyl-1H-pyrazole], the “activity against Lucilia sericata” value was “activity against a single species”.
